# In patent publication US20240252488A1 (KOREA RESEARCH INSTITUTE OF CHEMICAL TECHNOLOGY, priority 2020, published 2024):
# What was measured:
# FADD−/− Jurkat cells = experiment: Necroptosis inhibition assay, TNF-α-induced necroptosis (CellTiter-Glo 2.0); assay type: cell-based, human; conditions: TNF-α 15 ng/mL; for Necroptosis inhibition assay (Rescue %) 1 μM: compound 1 μM; for Necroptosis inhibition assay (Rescue %) 10 μM: compound 10 μM
# In short: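 Luminescent ATP measurement gave viability, from which cytotoxicity and necroptosis inhibition rate were derived. Before that, cells (5.0×10^5 cells/mL) saw compound at 0.1, 1 or 10 μM final for 30 minutes at room temperature, then TNF-α (15 ng/mL final) for 20 to 24 hours at 37° C.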
# MLKL [1] = biological target: T1, MLKL (Homo sapiens, UniProt Q8NB16); experiment: MLKL degradation assay in HepG2 cell line (western blot); assay type: cell-based; parameters: endogenous in cells; host or cells: HepG2 or HaCaT; conditions: cell line not given; for Degradation assay (Degradation %) 1 μM: compound 1 μM; for Degradation assay (Degradation %) 10 μM: compound 10 μM
# T1 sequence (Q8NB16 1-471): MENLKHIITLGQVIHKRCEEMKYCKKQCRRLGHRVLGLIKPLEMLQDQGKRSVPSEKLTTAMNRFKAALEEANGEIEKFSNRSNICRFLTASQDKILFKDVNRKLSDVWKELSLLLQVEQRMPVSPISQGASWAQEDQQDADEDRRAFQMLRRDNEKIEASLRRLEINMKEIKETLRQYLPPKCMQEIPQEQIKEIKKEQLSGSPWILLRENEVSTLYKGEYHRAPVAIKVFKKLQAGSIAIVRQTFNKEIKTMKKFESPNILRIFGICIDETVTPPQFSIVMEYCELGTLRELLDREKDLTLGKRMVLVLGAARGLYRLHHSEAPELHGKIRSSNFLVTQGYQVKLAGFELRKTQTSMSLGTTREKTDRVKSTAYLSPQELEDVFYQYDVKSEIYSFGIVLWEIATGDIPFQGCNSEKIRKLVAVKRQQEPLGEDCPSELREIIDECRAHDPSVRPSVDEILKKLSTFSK
# In short: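 Cells seeded, next day medium swapped for compound-containing medium (final 1 or 10 μM) and incubated 20-24 h at 37 °C. Lysates in RIPA with protease/phosphatase inhibitors were protein-matched by BCA, run on SDS-PAGE and immunoblotted for MLKL.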
# MLKL [2] = biological target: T1, MLKL; experiment: Measurement of binding affinity with MLKL receptor (competitive binding assay, Kd); parameters: made in house; host or cells: HEK 293 cell line (T7 phage in E. coli BL21-derived host is also described)
# In short: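 Competition binding of kinase tagged with DNA for qPCR detection, expressed in HEK 293 cells, against immobilized ligand on beads. Final DMSO 0.9%. Kd derived from kinase amount in eluates measured by qPCR.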
SMILES,Degradation assay (Degradation %) 1 μM (MLKL [1]) [%],Degradation assay (Degradation %) 10 μM (MLKL [1]) [%],Kd (MLKL [2]) [nM],Necroptosis inhibition assay (Rescue %) 1 μM (FADD−/− Jurkat cells) [%],Necroptosis inhibition assay (Rescue %) 10 μM (FADD−/− Jurkat cells) [%],Necroptosis inhibition assay (Rescue %) 1 μM (FADD−/− Jurkat cells; FADD−/− Jurkat cells) [%],Necroptosis inhibition assay (Rescue %) 10 μM (FADD−/− Jurkat cells; FADD−/− Jurkat cells) [%]
"Nc1ncc(-c2cnn(C3CCN(CCCN4CCN(C(=O)COc5ccc6c(c5)C(=O)N(C5CCC(=O)NC5=O)C6=O)CC4)CC3)c2)nc1C(=O)N[C@@H](C(=O)Nc1ccc(F)cc1)c1ccccc1 (stereo partly drawn) [TDH-492, 3-amino-6-(1-(1-(3-(4-(2-((2-(2,6-dioxopiperidin-3-yl)-1,3-dioxoisoindolin-5-yl)oxy)acetyl)piperazin-1-yl)propyl)piperidin-4-yl)-1H-pyrazol-4-yl)-N-((R)-2-((4-fluorophenyl)amino)-2-oxo-1-phenylethyl)pyrazine-2-carboxamide]",13.74,14.89,39,–,–,10.33,4.12
"Nc1ncc(-c2cnn(C3CCN(CC4CCN(C(=O)C5CCN(c6cccc7c6C(=O)N(C6CCC(=O)NC6=O)C7=O)CC5)CC4)CC3)c2)nc1C(=O)N[C@@H](C(=O)Nc1ccc(F)cc1)c1ccccc1 (stereo partly drawn) [TDH-209, 3-amino-6-(1-(1-((1-(1-(2-(2,6-dioxopiperidin-3-yl)-1,3-dioxoisoindolin-4-yl)piperidine-4-carbonyl)piperidin-4-yl)methyl)piperidin-4-yl)-1H-pyrazol-4-yl)-N-((R)-2-((4-fluorophenyl)amino)-2-oxo-1-phenylethyl)pyrazine-2-carboxamide]",7.36,–,140,7.73,18.12,–,–

# Molecules with a lower Kd (MLKL [2]), results first:
Degradation assay (Degradation %) 1 μM (MLKL [1]) [%],Degradation assay (Degradation %) 10 μM (MLKL [1]) [%],Kd (MLKL [2]) [nM],SMILES,Necroptosis inhibition assay (Rescue %) 1 μM (FADD−/− Jurkat cells) [%],Necroptosis inhibition assay (Rescue %) 10 μM (FADD−/− Jurkat cells) [%],Necroptosis inhibition assay (Rescue %) 1 μM (FADD−/− Jurkat cells; FADD−/− Jurkat cells) [%],Necroptosis inhibition assay (Rescue %) 10 μM (FADD−/− Jurkat cells; FADD−/− Jurkat cells) [%]
53.99,39.22,9.3,"Nc1ncc(-c2cnn(C3CCN(C(=O)C4CCN(c5ccc6c(c5)C(=O)N(C5CCC(=O)NC5=O)C6=O)CC4)CC3)c2)nc1C(=O)OC(C(=O)Nc1ccc(F)cc1)c1ccccc1 (stereo not drawn) [TDH-280, 2-((4-fluorophenyl)amino)-2-oxo-1-phenylethyl 3-amino-6-(1-(1-(1-(2-(2,6-dioxopiperidin-3-yl)-1,3-dioxoisoindolin-5-yl)piperidine-4-carbonyl)piperidin-4-yl)-1H-pyrazol-4-yl)pyrazine-2-carboxylate]",33.16,19.54,–,–
91.54,78.62,1.5,"Nc1ncc(-c2cnn(C3CCN(CC4CCN(C5=CC(=O)N(C6CCC(=O)NC6=O)C5=O)CC4)CC3)c2)nc1C(=O)O[C@@H](C(=O)Nc1ccc(F)cc1)c1ccccc1 (stereo partly drawn) [TDH-521, (R)-2-((4-fluorophenyl)amino)-2-oxo-1-phenylethyl 3-amino-6-(1-(1-((1-(1-(2,6-dioxopiperidin-3-yl)-2,5-dioxo-2,5-dihydro-1H-pyrrol-3-yl)piperidin-4-yl)methyl)piperidin-4-yl)-1H-pyrazol-4-yl)pyrazine-2-carboxylate]",–,–,0.16,1.33
79.68,71.14,0.93,"Nc1ncc(-c2cnn(C3CCN(CCCN4CCN(C(=O)CCc5cccc6c5CN(C5CCC(=O)NC5=O)C6=O)CC4)CC3)c2)nc1C(=O)O[C@@H](C(=O)Nc1ccc(F)cc1)c1ccccc1 (stereo partly drawn) [TDH-386, (R)-2-((4-fluorophenyl)amino)-2-oxo-1-phenylethyl 3-amino-6-(1-(1-(3-(4-(3-(2-(2,6-dioxopiperidin-3-yl)-1-oxoisoindolin-4-yl)propanoyl)piperazin-1-yl)propyl)piperidin-4-yl)-1H-pyrazol-4-yl)pyrazine-2-carboxylate]",34.89,20.76,–,–
